Values quoted from earlier work in patent US20110293691A1, “MULTIMODAL ADHESION BARRIER” (priority 2010, published 2011).

Tested on: rat model
Details: oral or intraperitoneal, about one week prior to surgery and three weeks postoperatively

## O=C(CC1NCCCC1O)Cn1cnc2cc(Br)c(Cl)cc2c1=O (stereo not shown) [Halofuginone, 7-bromo-6-chloro-3-[3-(3-hydroxy-2-piperidinyl)-2-oxopropyl]-4(3H)]
  prevention of adhesions (in words): prevent adhesions in a rat model in a dose dependent manner
